The NIST ThermoML archive (doi:10.1016/j.jct.2012.06.031)
Numbers after ± are expanded uncertainties.

Assay: xn = mol fraction of the nth substance listed
Details: 101 kPa, Liquid; for viscosity: Concentric cylinders viscometry; for mass density: Vibrating tube method

CC(O)CO (stereo not given) [1,2-propanediol] + c1ccncc1
Details | mass density [kg/m3] | viscosity [mPa·s]
288.15 K, x2 = 0 | 1040.08 ± 0.14 | 81.21 ± 0.6
288.15 K, x2 = 0.1 | 1035.59 ± 0.13 | 52.73 ± 0.19
288.15 K, x2 = 0.2 | 1030.94 ± 0.13 | 33 ± 0.16
288.15 K, x2 = 0.2999 | 1026.33 ± 0.13 | 20.08 ± 0.095
288.15 K, x2 = 0.4 | 1021.39 ± 0.12 | 12.08 ± 0.056
288.15 K, x2 = 0.4999 | 1016.46 ± 0.12 | 7.326 ± 0.034
288.15 K, x2 = 0.6 | 1011.23 ± 0.12 | 4.547 ± 0.022
288.15 K, x2 = 0.7001 | 1005.6 ± 0.12 | 3 ± 0.015
288.15 K, x2 = 0.8 | 999.698 ± 0.12 | 1.935 ± 0.012
288.15 K, x2 = 0.9 | 994.093 ± 0.12 | 1.391 ± 0.0099
293.15 K, x2 = 0 | 1036.46 ± 0.14 | 58.75 ± 0.25
293.15 K, x2 = 0.1 | 1031.78 ± 0.13 | 38.74 ± 0.18
293.15 K, x2 = 0.2 | 1026.95 ± 0.13 | 24.82 ± 0.12
293.15 K, x2 = 0.2999 | 1022.18 ± 0.13 | 15.55 ± 0.07
293.15 K, x2 = 0.4 | 1017.12 ± 0.12 | 9.643 ± 0.043
293.15 K, x2 = 0.4999 | 1012.06 ± 0.12 | 6.036 ± 0.027
293.15 K, x2 = 0.6 | 1006.71 ± 0.12 | 3.857 ± 0.018
293.15 K, x2 = 0.7001 | 1000.96 ± 0.12 | 2.588 ± 0.013
293.15 K, x2 = 0.8 | 994.925 ± 0.12 | 1.736 ± 0.011
293.15 K, x2 = 0.9 | 989.201 ± 0.12 | 1.274 ± 0.0095
298.15 K, x2 = 0 | 1032.8 ± 0.14 | 43.44 ± 0.2
298.15 K, x2 = 0.1 | 1027.92 ± 0.13 | 29.09 ± 0.14
298.15 K, x2 = 0.2 | 1022.93 ± 0.13 | 19.05 ± 0.087
298.15 K, x2 = 0.2999 | 1018.01 ± 0.12 | 12.15 ± 0.055
298.15 K, x2 = 0.4 | 1012.81 ± 0.12 | 7.822 ± 0.035
298.15 K, x2 = 0.4999 | 1007.63 ± 0.12 | 5.021 ± 0.023
298.15 K, x2 = 0.6 | 1002.16 ± 0.12 | 3.31 ± 0.016
298.15 K, x2 = 0.7001 | 996.296 ± 0.12 | 2.292 ± 0.013
298.15 K, x2 = 0.8 | 990.138 ± 0.12 | 1.567 ± 0.01
298.15 K, x2 = 0.9 | 984.298 ± 0.12 | 1.171 ± 0.0093
303.15 K, x2 = 0 | 1029.09 ± 0.14 | 32.75 ± 0.15
303.15 K, x2 = 0.1 | 1024.03 ± 0.13 | 22.28 ± 0.1
303.15 K, x2 = 0.2 | 1018.88 ± 0.13 | 14.9 ± 0.068
303.15 K, x2 = 0.2999 | 1013.81 ± 0.12 | 9.81 ± 0.044
303.15 K, x2 = 0.4 | 1008.48 ± 0.12 | 6.396 ± 0.029
303.15 K, x2 = 0.4999 | 1003.18 ± 0.12 | 4.234 ± 0.02
303.15 K, x2 = 0.6 | 997.549 ± 0.12 | 2.866 ± 0.014
303.15 K, x2 = 0.7001 | 991.612 ± 0.12 | 2.008 ± 0.012
303.15 K, x2 = 0.8 | 985.331 ± 0.12 | 1.425 ± 0.0099
303.15 K, x2 = 0.9 | 979.376 ± 0.12 | 1.082 ± 0.009
308.15 K, x2 = 0 | 1025.34 ± 0.13 | 25.16 ± 0.12
308.15 K, x2 = 0.1 | 1020.1 ± 0.13 | 17.37 ± 0.08
308.15 K, x2 = 0.2 | 1014.79 ± 0.13 | 11.85 ± 0.054
308.15 K, x2 = 0.2999 | 1009.58 ± 0.12 | 7.981 ± 0.036
308.15 K, x2 = 0.4 | 1004.12 ± 0.12 | 5.363 ± 0.025
308.15 K, x2 = 0.4999 | 998.699 ± 0.12 | 3.638 ± 0.017
308.15 K, x2 = 0.6 | 992.998 ± 0.12 | 2.514 ± 0.013
308.15 K, x2 = 0.7001 | 986.903 ± 0.12 | 1.795 ± 0.011
308.15 K, x2 = 0.8 | 980.506 ± 0.12 | 1.301 ± 0.0096
308.15 K, x2 = 0.9 | 974.443 ± 0.12 | 1.002 ± 0.0089
313.15 K, x2 = 0 | 1021.55 ± 0.13 | 19.65 ± 0.09
313.15 K, x2 = 0.1 | 1016.14 ± 0.13 | 13.76 ± 0.063
313.15 K, x2 = 0.2 | 1010.67 ± 0.13 | 9.567 ± 0.043
313.15 K, x2 = 0.2999 | 1005.32 ± 0.12 | 6.581 ± 0.03
313.15 K, x2 = 0.4 | 999.722 ± 0.12 | 4.523 ± 0.021
313.15 K, x2 = 0.4999 | 994.186 ± 0.12 | 3.137 ± 0.015
313.15 K, x2 = 0.6 | 988.375 ± 0.12 | 2.218 ± 0.012
313.15 K, x2 = 0.7001 | 982.171 ± 0.12 | 1.613 ± 0.01
313.15 K, x2 = 0.8 | 975.66 ± 0.12 | 1.193 ± 0.0093
313.15 K, x2 = 0.9 | 969.488 ± 0.12 | 0.9311 ± 0.0087
318.15 K, x2 = 0 | 1017.73 ± 0.13 | 15.58 ± 0.071
318.15 K, x2 = 0.1 | 1012.14 ± 0.13 | 11.07 ± 0.05
318.15 K, x2 = 0.2 | 1006.51 ± 0.12 | 7.833 ± 0.036
318.15 K, x2 = 0.2999 | 1001.02 ± 0.12 | 5.495 ± 0.025
318.15 K, x2 = 0.4 | 995.298 ± 0.12 | 3.855 ± 0.018
318.15 K, x2 = 0.4999 | 989.644 ± 0.12 | 2.729 ± 0.014
318.15 K, x2 = 0.6 | 983.722 ± 0.12 | 1.972 ± 0.012
318.15 K, x2 = 0.7001 | 977.41 ± 0.12 | 1.459 ± 0.01
318.15 K, x2 = 0.8 | 970.792 ± 0.12 | 1.098 ± 0.0091
318.15 K, x2 = 0.9 | 964.514 ± 0.12 | 0.8674 ± 0.0086
323.15 K, x2 = 0 | 1013.86 ± 0.13 | 12.55 ± 0.058
323.15 K, x2 = 0.1 | 1008.1 ± 0.13 | 9.082 ± 0.041
323.15 K, x2 = 0.2 | 1002.32 ± 0.12 | 6.551 ± 0.03
323.15 K, x2 = 0.2999 | 996.693 ± 0.12 | 4.678 ± 0.022
323.15 K, x2 = 0.4 | 990.839 ± 0.12 | 3.349 ± 0.016
323.15 K, x2 = 0.4999 | 985.073 ± 0.12 | 2.416 ± 0.013
323.15 K, x2 = 0.6 | 979.044 ± 0.12 | 1.786 ± 0.011
323.15 K, x2 = 0.7001 | 972.625 ± 0.12 | 1.341 ± 0.0097
323.15 K, x2 = 0.8 | 965.9 ± 0.12 | 1.022 ± 0.0089
323.15 K, x2 = 0.9 | 959.522 ± 0.12 | 0.8177 ± 0.0084
